O=C1CCC(c2ccccc2)=NN1
solubility (mole fraction)
Details | 293.15 K | 298.15 K | 303.15 K | 308.15 K | 313.15 K
in transcutol | 0.425 | 0.453 | 0.478 | 0.507 | 0.527
in water | 7.45e-07 | 9.1e-07 | 1.09e-06 | 1.34e-06 | 1.64e-06

— BigSolDB 2.1
